Earlier results in patent US12582632B2, “Inhibition of neurological injuries due to infections via administration of Butanetap and analogs thereof” (priority 2021, dated 2026).

Details: 3 phase 3 clinical studies, failed; cited from earlier work

In the case of `CN1CC[C@@]2(C)c3cc(OC(=O)Nc4ccccc4)ccc3N(C)[C@@H]12` [Phenserine, (−)-N-phenylcarbamoyl eseroline], the “side effects in clinical studies” value is given as “high cholinomimetic side effects”.
